# According to patent US6737383B1, “Herbicidal oxadiazolidines” (priority 1999, dated 2004):
# What was measured:
# [1] = system: crabgrass; assay: Test B pre/postemergence crabgrass; type: in vivo, Digitaria sanguinalis
# Procedure, shortened: (§1)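 Herbicidal effect was estimated by eye on a ten-point control scale after plants spent twelve to sixteen days in a greenhouse following soil or foliar treatment. Foliar sprays targeted plants at one to four leaves; all doses were formulated in a non-phytotoxic solvent with surfactant.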
# [2] = system: giant foxtail; assay: Test B pre/postemergence giant foxtail; type: in vivo, Setaria faberii
# Procedure, shortened: as §1
# [3] = system: rice; assay: Test B flood test rice; type: in vivo, Oryza sativa
# Procedure, shortened: (§2)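 Each value is a visual injury score relative to controls, with 10 meaning complete control and 0 no effect. Evaluation took place twelve to sixteen days after the 2-leaf-stage plants were treated and kept in the greenhouse.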
# [4] = system: blackgrass; assay: Test B pre/postemergence blackgrass; type: in vivo, Alopecurus myosuroides
# Procedure, shortened: as §1
# [5] = system: soybean; assay: Test B pre/postemergence soybean; type: in vivo, Glycine max
# Procedure, shortened: as §1
# [6] = system: wild oat; assay: Test B pre/postemergence wild oat; type: in vivo, Avena fatua
# Procedure, shortened: as §1
# [7] = system: wheat; assay: Test B pre/postemergence wheat; type: in vivo, Triticum aestivum
# Procedure, shortened: as §1
# [8] = system: morningglory; assay: Test B pre/postemergence morningglory; type: in vivo, Ipomoea hederacea
# Procedure, shortened: as §1
# [9] = system: rape; assay: Test B pre/postemergence rape; type: in vivo, Brassica napus
# Procedure, shortened: as §1
# [10] = system: surinam grass; assay: Test B pre/postemergence surinam grass; type: in vivo, Brachiaria decumbens
# Procedure, shortened: as §1
# [11] = system: pigweed; assay: Test B pre/postemergence pigweed; type: in vivo, Amaranthus retroflexus
# Procedure, shortened: as §1
# [12] = system: bedstraw; assay: Test B pre/postemergence bedstraw; type: in vivo, Galium aparine
# Procedure, shortened: as §1
# [13] = system: purple nutsedge; assay: Test B pre/postemergence purple nutsedge; type: in vivo, Cyperus rotundus
# Procedure, shortened: as §1
# [14] = system: duck salad; assay: Test B flood test duck salad; type: in vivo, Heteranthera limosa
# Procedure, shortened: as §2
# [15] = system: corn; assay: Test B pre/postemergence corn; type: in vivo, Zea mays
# Procedure, shortened: as §1
# [16] = system: velvetleaf; assay: Test B pre/postemergence velvetleaf; type: in vivo, Abutilon theophrasti
# Procedure, shortened: as §1
# [17] = Postemergence, Rate 125 g/ha, scale of 0 to 10 where 0 is no effect and 10 is complete control
# [18] = Preemergence, Rate 62 g/ha, scale 0 to 10 (0 no effect, 10 complete control)
# [19] = Preemergence, Rate 125 g/ha, 0 is no effect, 10 is complete control
# [20] = Preemergence, Rate 250 g/ha, scale 0 to 10, 0 is no effect, 10 is complete control
# [21] = Preemergence, Rate 500 g/ha, scale 0 to 10 (0 no effect, 10 complete control)
# [22] = Rate 62 g/ha, Postemergence, scale of 0 to 10 where 0 is no effect and 10 is complete control
# [23] = Rate 250 g/ha, Postemergence, scale 0 to 10, 0 is no effect, 10 is complete control
# [24] = Rate 500 g/ha, Postemergence, scale 0 to 10
# [25] = Postemergence (flood test species), Rate 125 g/ha, scale of 0 to 10 where 0 is no effect and 10 is complete control
# [26] = Rate 62 g/ha, Postemergence section, flood test species, scale of 0 to 10 where 0 is no effect and 10 is complete control
# [27] = Rate 250 g/ha, Postemergence (flood test), scale 0 to 10, 0 is no effect, 10 is complete control
# [28] = Rate 500 g/ha, listed under Postemergence (flood test species), scale 0 to 10
structure (smiles),measurement,setting,value
CCN(CC)C(=O)n1oc(=O)n(Cc2ccccc2)c1=O [Compound 152],Crabgrass plant response rating,[1]; [17],0
same,Crabgrass plant response rating,[1]; [18],0
same,Crabgrass plant response rating (0 to 10 scale),[1]; [19],0
same,Crabgrass plant response rating,[1]; [20],1
same,Crabgrass plant response rating,[1]; [21],3
same,Crabgrass plant response rating,[1]; [22],0
same,"Plant response rating, Crabgrass",[1]; [23],2
same,Crabgrass plant response rating,[1]; [24],3
same,Giant foxtail plant response rating,[2]; [17],0
same,Giant foxtail plant response rating,[2]; [18],0
same,Giant foxtail plant response rating (0 to 10 scale),[2]; [19],0
same,Giant foxtail plant response rating,[2]; [20],3
same,Giant foxtail plant response rating,[2]; [21],5
same,Giant foxtail plant response rating,[2]; [22],0
same,"Plant response rating, Giant foxtail",[2]; [23],0
same,Giant foxtail plant response rating,[2]; [24],3
same,Rice plant response rating,[3]; [25],0
same,Rice plant response rating,[3]; [26],0
same,"Plant response rating, Rice",[3]; [27],0
same,Rice plant response rating,[3]; [28],0
same,Blackgrass plant response rating,[4]; [17],0
same,Blackgrass plant response rating,[4]; [18],0
same,Blackgrass plant response rating (0 to 10 scale),[4]; [19],0
same,Blackgrass plant response rating,[4]; [20],0
same,Blackgrass plant response rating,[4]; [21],3
same,Blackgrass plant response rating,[4]; [22],0
same,"Plant response rating, Blackgrass",[4]; [23],0
same,Blackgrass plant response rating,[4]; [24],2
same,Soybean plant response rating,[5]; [17],0
same,Soybean plant response rating,[5]; [18],0
same,Soybean plant response rating (0 to 10 scale),[5]; [19],0
same,Soybean plant response rating,[5]; [20],0
same,Soybean plant response rating,[5]; [21],0
same,Soybean plant response rating,[5]; [22],0
same,"Plant response rating, Soybean",[5]; [23],1
same,Soybean plant response rating,[5]; [24],1
same,Wild oats plant response rating,[6]; [18],0
same,Wild oats plant response rating (0 to 10 scale),[6]; [19],0
same,Wild oats plant response rating,[6]; [20],0
same,Wild oats plant response rating,[6]; [21],0
same,Wild oats plant response rating,[6]; [22],0
same,"Plant response rating, Wild oats",[6]; [23],0
same,Wild oats plant response rating,[6]; [24],0
same,Wheat plant response rating,[7]; [18],0
same,Wheat plant response rating (0 to 10 scale),[7]; [19],0
same,Wheat plant response rating,[7]; [20],0
same,Wheat plant response rating,[7]; [21],0
same,Wheat plant response rating,[7]; [22],0
same,"Plant response rating, Wheat",[7]; [23],0
same,Wheat plant response rating,[7]; [24],0
same,Morningglory plant response rating,[8]; [17],0
same,Morningglory plant response rating,[8]; [18],0
same,Morningglory plant response rating (0 to 10 scale),[8]; [19],0
same,Morningglory plant response rating,[8]; [20],0
same,Morningglory plant response rating,[8]; [21],0
same,Morningglory plant response rating,[8]; [22],0
same,"Plant response rating, Morningglory",[8]; [23],0
same,Morningglory plant response rating,[8]; [24],0
same,Rape plant response rating,[9]; [17],0
same,Rape plant response rating,[9]; [18],0
same,Rape plant response rating (0 to 10 scale),[9]; [19],0
same,Rape plant response rating,[9]; [20],0
same,Rape plant response rating,[9]; [21],0
same,Rape plant response rating,[9]; [22],0
same,"Plant response rating, Rape",[9]; [23],0
same,Rape plant response rating,[9]; [24],0
same,B. signalgrass plant response rating,[10]; [17],0
same,B. signalgrass plant response rating,[10]; [18],0
same,B. signalgrass plant response rating (0 to 10 scale),[10]; [19],4
same,B. signalgrass plant response rating,[10]; [20],4
same,B. signalgrass plant response rating,[10]; [21],6
same,B. signalgrass plant response rating,[10]; [22],0
same,"Plant response rating, B. signalgrass",[10]; [23],0
same,B. signalgrass plant response rating,"[10]; Rate 500 g/ha, Postemergence, scale of 0 to 10 where 0 is no effect and 10 is complete control",0
same,Redroot pigweed plant response rating,[11]; [17],0
same,Redroot pigweed plant response rating,[11]; [18],0
same,Redroot pigweed plant response rating (0 to 10 scale),[11]; [19],0
same,Redroot pigweed plant response rating,[11]; [20],0
same,Redroot pigweed plant response rating,[11]; [21],0
same,Redroot pigweed plant response rating,[11]; [22],0
same,"Plant response rating, Redroot pigweed",[11]; [23],0
same,Redroot pigweed plant response rating,[11]; [24],0
same,Bedstraw plant response rating,[12]; [17],0
same,Bedstraw plant response rating,[12]; [18],0
same,Bedstraw plant response rating (0 to 10 scale),[12]; [19],0
same,Bedstraw plant response rating,[12]; [20],0
same,Bedstraw plant response rating,[12]; [21],0
same,Bedstraw plant response rating,[12]; [22],0
same,"Plant response rating, Bedstraw",[12]; [23],0
same,Bedstraw plant response rating,"[12]; Rate 500 g/ha, Postemergence, scale 0 to 10, 0 no effect, 10 complete control",0
same,Nutsedge plant response rating,[13]; [17],0
same,Nutsedge plant response rating,[13]; [18],0
same,Nutsedge plant response rating (0 to 10 scale),[13]; [19],0
same,Nutsedge plant response rating,[13]; [20],0
same,Nutsedge plant response rating,[13]; [21],0
same,Nutsedge plant response rating,[13]; [22],0
same,"Plant response rating, Nutsedge",[13]; [23],0
same,Nutsedge plant response rating,[13]; [24],0
same,Ducksalad plant response rating,[14]; [25],0
same,Ducksalad plant response rating,[14]; [26],0
same,"Plant response rating, Ducksalad",[14]; [27],0
same,Ducksalad plant response rating,[14]; [28],0
same,Corn plant response rating,[15]; [17],0
same,Corn plant response rating,[15]; [18],0
same,Corn plant response rating (0 to 10 scale),[15]; [19],0
same,Corn plant response rating,[15]; [20],0
same,Corn plant response rating,[15]; [21],0
same,Corn plant response rating,[15]; [22],0
same,"Plant response rating, Corn",[15]; [23],0
same,Corn plant response rating,[15]; [24],0
same,Velvetleaf plant response rating,[16]; [18],0
same,Velvetleaf plant response rating (0 to 10 scale),[16]; [19],0
same,Velvetleaf plant response rating,[16]; [20],0
same,Velvetleaf plant response rating,[16]; [21],0
same,Velvetleaf plant response rating,[16]; [22],0
same,"Plant response rating, Velvetleaf",[16]; [23],0
same,Velvetleaf plant response rating,[16]; [24],0
